Source: a melting point compilation (Tetko et al.; mined from patent text by program, amines drawn as free bases though some values may be those of a salt)

SMILES | melting point [°C]
CSc1ccc(C[C@@H](NC(=O)OCc2ccccc2)[C@H](O)C(=O)O)cc1 | 174 to 177
CN(Cc1ccccc1)Cc1cnc(NC(=O)C(Cc2ccc(F)cc2)c2ccc(S(C)(=O)=O)cc2)cn1 (stereo not given) | 99 to 100
Nc1nc(Cl)cc(OC(F)(F)F)n1 | 55 to 56
N#Cc1cc(Cn2cncn2)cc(-c2ccc(F)cc2)c1 | 134 to 135
CC1(C)CC(S(C)(=O)=O)=NO1 | 82 to 84
COC(=O)c1ccccc1-c1nc(COc2ccc(C=O)cc2OC)c(C)o1 | 129 to 130
CCOC1=NS(=O)(=O)N=C1c1ccccc1 | 204 to 206
C=CC1(O)CCC2(C)C(CCC3C2CCC2(C)C(OC)CCC32)C1 (stereo not given) | 104 to 111
CS(=O)c1nnc2n1C=Cc1cc(Cl)ccc1C2 (stereo not given) | 183 to 185
CC(C)c1nn(Cc2ccc(Cl)cc2Cl)cc1CCCO | 68 to 69
CS(=O)(=O)c1ccc(-c2cnn(CC(=O)c3ccc(C#N)cc3)c(=O)c2-c2ccc(F)cc2)cc1 | 188 to 189
O=C1NC(=O)C(=Cc2ccc(N3CCC4(CC3)OCCO4)c(Br)c2)S1 | 109 to 111
O=c1cc(C(F)(F)F)nc(Cl)n1-c1cc(Oc2ccccc2[N+](=O)[O-])c(Cl)cc1F | 128 to 131
CCOC1(c2ccccc2)c2cc(Cl)ccc2NC(=O)N1c1ccccc1 (stereo not given) | 209 to 211
CC12CC(Cl)C(O)CC1CCC1C2CCC2(C)C(O)C(N3CCCCC3)CC12 (stereo not given) | 232 to 234
COc1ccccc1CNc1ccc2c(C(=N)NO)cccc2n1 | 161
NCCCCCCCCC(=O)O | 190 to 193
NC(CCOc1ccncc1)C(=O)c1ccccc1CO (stereo not given) | 108 to 109
N#Cc1nn(-c2c(Cl)cc(C(F)(F)F)cc2Cl)c(Br)c1[N+](=O)[O-] | 147 to 150
CONS(=O)(=O)c1cc(Cl)c(Cl)cc1Cl | 163 to 166
CCCCC12COC(c3ccc(Br)cc3)(OC1)SC2 | 110 to 112
N#CCc1cc(F)cc(Cc2nc3c(F)c(F)cc(F)c3s2)c1 | 91 to 94
O=S(=O)(NCCn1ccnc1)c1ccc(Br)cc1 | 165 to 167
OCC(CO)c1ccccc1 | 52 to 54
CCCC(CCC)c1ccc(OCc2ccc(-c3csc(COc4cncc(C(=O)O)c4)c3)cc2)cc1 | 157 to 159
COc1cc2ccc(-c3ccc(C(=O)O)cc3)cc2cc1C12CC3CC(CC(C3)C1)C2 | 360
O=C(O)Cc1cccc(Cc2nc3c(F)c(F)cc(F)c3s2)c1 | 132 to 134

SMILES | melting point [°C]
Oc1ccnn1-c1c(Cl)cc(C(F)(F)F)cc1Cl | 223 to 225
CCn1cc(C(=O)O)c(=O)c2ccc(-c3cccnc3)cc21 | 268 to 269
CC(C)(C)OC(=O)NC1Cc2ccccc2CC1=O (single isomer, unassigned; (+)) | 76
Cc1c(C#N)sc2nc(-c3ccccc3)nc(N3CCNCC3)c12 | 251 to 253
COC(=O)[C@H]1[C@H](c2ccc3c(c2)OCO3)c2ccc(O)cc2[C@@H]1c1ccc(OC)cc1 (racemic) | 187 to 188
COC(=O)c1ccc([N+](=O)[O-])cc1S(=O)(=O)Cl | 86 to 88
CCCCC(=O)Nc1ccc(-c2ccc(-c3ccccc3Cl)n2Cc2cccc(N)n2)cc1 | 145 to 150
CNC(=S)NCCCNc1ccccn1 | 134 to 135
Cc1nn(C)c(C)c1C(=O)Nc1ccc(C(C(F)(F)F)C(F)(F)F)c(CC(C)C)c1 | 148 to 151
O=C(O)c1ccnc(-c2ccc3c(c2)C(c2ccc(Cl)cc2Cl)CC3)c1 (stereo not given) | 205 to 206
COc1cc2[nH]c(=O)n(-c3ccccc3C)c(=O)c2cc1OC | 282 to 284
O=c1ccc(-c2ccc(Cc3nn[nH]n3)cc2)cn1Cc1ccc(Cl)cc1 | 231
C=CCN(C)c1nc(-c2cc(OC)c(OC)c(OC)c2)nc2sc(C#N)c(C)c12 | 162 to 164
OCC1CC2CC2N1c1cncc(Br)c1 (stereo not given) | 90.4 to 93.5
CCOC(=O)c1c(C)csc1N/C=C(\C#N)C(=O)OC(C)(C)C | 144
S=C(N1CCCCC1)C1(c2ccccn2)CCCS1 (stereo not given) | 90
CCCCc1nn(-c2cc(N)ccc2Cl)c(=O)n1Cc1ccc(-c2ccccc2S(=O)(=O)NC(C)(C)C)cc1F | 167 to 170
COc1cc(N)c(Cl)cc1C(=O)NCC1CCN(CCS(=O)(=O)CCc2ccccc2)CC1 | 161 to 162
CC(C)(O)Cc1cccc(C(F)(F)F)c1 | 55 to 56
CCCc1nc2c(N)nc(C)c(C)c2n1CCCCNC(C)=O | 200 to 201
COc1ccc(Oc2ccc(NC(=O)N3CCc4ccccc4CC3)cn2)cc1 | 156 to 157
N#CCCN1CCOC(c2ccccc2)(c2ccccc2)CC1 | 106 to 107
COCCNC(=O)c1ccc(Br)c(C)c1 | 79 to 81
COc1c(C(C)=O)cnc2c(N)cccc12 | 76 to 77
CCCCOc1cc(C(=O)NCC#N)cc(Cl)n1 | 72 to 73
CNc1ncn(-c2ccccc2C)c(=O)n1 | 192
CCCOc1ccc(-c2scc(-c3ccccc3OC(F)(F)F)c2CC(=O)N=C(N)N)cc1 | 90 to 92

SMILES | melting point [°C]
Cc1oc(-c2ccccc2)nc1CCOc1ccc(CCl)c2sccc12 | 144 to 145
O=[N+]([O-])c1c(Nc2ccc(O)cc2)ncnc1-c1ccc(C(F)(F)F)cc1F | 169 to 172
CCN(CC)C(=O)C(C)(C)n1cc(C)c(-c2ccccc2Cl)n1 | 73 to 76
C=CCCCCCCCCNC(=O)N(C)O | 58 to 59
c1ccc(C2=c3cc4c(cc3Oc3ccccc32)=C(c2ccccc2)c2ccccc2O4)cc1 | 419
CC(C)(C)OC(=O)c1ncn2c1[C@@H]1CCCN1C(=O)c1ccccc1-2 | 237 to 238
N#Cc1[nH]c2ccc(C(=O)O)cc2c1-c1ccccc1 | 302 to 304
CCCCOc1cc(O)c(C#N)s1 | 107
Cc1ccc(Nc2cc(-c3ccccc3)nc(-c3ccccc3)c2)cc1 | 125
COc1ccc2c(c1)CC(CCCNCCCSc1nnc(-c3ccccc3)n1C)CC2 (stereo not given) | 92 to 95
CCC1(CCCCCBr)C(=O)Nc2ccc(F)cc21 (stereo not given) | 82 to 83
O=C(O)[C@H](CCc1ccccc1)NS(=O)(=O)c1ccc2oc3ccccc3c2c1 | 130 to 132
CN(C(=NC#N)Nc1cccnc1)C(NC(=O)c1ccc(Cl)cc1)C(C)(C)C (stereo not given) | 127 to 129
O[C@H]1c2ccccc2C=C[C@@H]1OC(C(F)(F)F)C(F)(F)F | 88.5 to 90
O=C(O)c1cnc2sccc2c1Cl | 172 to 174
CCCSc1sc(C(=O)OCC)c2c1-c1[nH]ncc1CC2 | 161 to 162
CCOC(=O)c1c(N)c2c(n1C)N=CCN2 | 119 to 121
O=C(Nc1ccccc1)ONC1=Nc2ccc(Cl)cc2C(c2ccccc2F)=NC1 | 126 to 128
CCN1CCN(C(=O)c2ccc(-c3[nH]nc4c3C(=O)c3c(NC(=O)NN5CCOCC5)cccc3-4)s2)CC1 | 186 to 188
O=c1[nH]c2cc(Cl)ccc2c(O)c1-c1cccc(Cc2ccccc2)c1 | 304 to 306
CCNCC(=O)Nc1c(Cc2nccc3ccccc23)ccc(OC)c1OC | 107 to 108
OCCc1cccc(Nc2ccc3nc(N[C@@H]4CCc5ccccc54)ccc3c2)c1 | 109
Cc1cnc2c(=O)[nH]c3cc(Cl)c(Cl)cc3n12 | > 300
CCOC(=O)c1ccc(CN2CC[C@H](NC(=O)OC(C)(C)C)C2=O)c(C(F)(F)F)c1 | 93 to 95
CC1(C)NC(=O)Oc2ccc(OCc3ccccc3)cc21 | 134
CCn1ncc2c(Cl)c3cccc(OC)c3nc21 | 168 to 170
CC(c1ccccc1)N1CC(CF)(C(=O)N(Cc2ccccc2)Cc2ccccc2)CC1=O (stereo not given) | 113 to 115

SMILES | melting point [°C]
CCOC(=O)c1coc(-c2ccc(Cn3cnc4ccccc43)cc2)n1 | 150 to 152
N#Cc1cc(N)ccc1N1CCC(N2CCCCC2)CC1 | 110 to 112
Cc1oc(-c2ccccc2)nc1COc1ccc2c(c1)CCC(CO)=C2 | 141 to 142
CC=CCn1c(C)c(C)c2cnnc(OCc3cccnc3)c21 | 80 to 81
O=C1c2ccccc2C(=O)c2oc(-c3ccc(F)cc3)nc21 | > 260
CN(C)c1ccc2c(c1)SC1=NCCN12 | 144
C=CC(=O)NC(C)(C)c1ccc(CC(=O)OCCC)cc1 | 71 to 72
N#Cc1ccc2ccc(=O)n(CCN3CCC(N)CC3)c2c1 | 138
CS(=O)(=O)N1CCS(=O)c2cccc(Cl)c2C1 (stereo not given) | 167 to 169
CC(=O)NCCn1ccc2c1-c1cc(Cl)ccc1CC2 | 144 to 146
Cc1ncnc(C)c1C(=O)O | 203 to 204
CCOP(=O)(NCc1cccc(-c2nc(=O)c3ccccc3s2)n1)OCC | 135 to 136
Cn1cc(-c2cccc(N3Cc4cc(C(C)(C)C)ccc4C3=O)c2CO)cc(Nc2cc(C3CC3)n[nH]2)c1=O | 178 to 180
CCCNc1nc(NCCC)nc(N2CCN(C(=O)Nc3cc(C)c(C)nc3OC)CC2)n1 | 140 to 143
O=Cc1cnc(Sc2nc3ccccc3[nH]2)s1 | 188
O=C(O)CCc1cccc(C(=O)c2ccccc2)c1 | 70
CN1CCC(=C2c3ccccc3COc3ccc(Br)cc32)CC1 | 131 to 132
CC(C)c1nc(-c2ncn3c2COC(=O)c2ccccc2-3)no1 | 143 to 144
Cc1c2ccccc2c(-c2ccc(OS(C)(=O)=O)cc2)c2c1sc1ccccc12 | 172 to 173
Clc1ccc2c(c1)N=C(NCCCn1ccnc1)c1ccccc1N2 | 228 to 230
N#CC(=NO)c1cc(F)ccc1F | 64 to 67
Nc1nc2cccnc2c2c1ncn2CC1(O)CCOCC1 | 225 to 226
COc1cc(C(=O)CC(c2ccncc2)C(C)(C)[N+](=O)[O-])cc(OC)c1OC (stereo not given) | 214 to 216
COc1ccc2[nH]c(S(=O)Cc3ncc(F)c(N4CCOCC4)c3C)nc2c1 (stereo not given) | 158 to 160
